Experimental data as given in patent publication US20070066566A1, “19,23,24,25,26,27-Hexanor-1alpha-hydroxyvitamin D3” (Wisconsin Alumni Research Foundation, priority 2005, published 2007).

Assays:
[1] = target: T1, full-length recombinant rat vitamin D receptor (Rattus norvegicus, UniProt P13053); assay: Vitamin D receptor binding, competition with [3H]-1,25-(OH)2-D3; details: FIG. 1
T1 construct: Full-length recombinant rat receptor was expressed in E. coli BL21(DE3) Codon Plus RIL cells; His tag (C); made in house; host or cells: E. coli BL21(DE3) Codon Plus RIL
T1 sequence (P13053 1-423): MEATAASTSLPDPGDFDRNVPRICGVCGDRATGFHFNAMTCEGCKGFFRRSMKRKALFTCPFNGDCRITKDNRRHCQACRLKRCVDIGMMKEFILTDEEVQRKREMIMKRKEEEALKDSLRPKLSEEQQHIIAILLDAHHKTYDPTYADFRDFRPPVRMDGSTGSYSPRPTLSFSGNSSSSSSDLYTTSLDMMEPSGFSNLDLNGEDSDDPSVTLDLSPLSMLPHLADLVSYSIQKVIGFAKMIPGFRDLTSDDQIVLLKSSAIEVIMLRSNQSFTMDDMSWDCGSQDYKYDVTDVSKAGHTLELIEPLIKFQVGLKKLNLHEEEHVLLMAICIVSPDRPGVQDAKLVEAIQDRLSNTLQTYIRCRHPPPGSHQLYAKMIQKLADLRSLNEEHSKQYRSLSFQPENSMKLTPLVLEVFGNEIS
Source text: FIG. 1 is a graph comparing the relative activity of NP9 and 1,25(OH)2D3 to compete for binding with [^3H]-1,25-(OH)2-D3 to the full-length recombinant rat vitamin D receptor.
Full-length recombinant rat receptor was expressed in E. coli BL21(DE3) Codon Plus RIL cells and purified to homogeneity using two different column chromatography systems. The first system was a nickel affinity resin that utilizes the C-terminal histidine tag on this protein. The protein that eluted from this resin was further purified using ion exchange chromatography (S-Sepharose Fast Flow). Aliquots of the purified protein were quick frozen in liquid nitrogen and stored at −80° C. until use. For use in binding assays, the protein was diluted in TEDK50 (50 mM Tris, 1.5 mM EDTA, pH 7.4, 5 mM DTT, 150 mM KCl) with 0.1% Chaps detergent. […]
Unlabeled ligands were dissolved in ethanol and the concentrations were determined using UV spectrophotometry (1,25(OH)2D3: molar extinction coefficient=18,200 and λmax=265 nm). […]
Radiolabeled and unlabeled ligands were added to 100 mcl of the diluted protein at a final ethanol concentration of ≧10%, mixed and incubated overnight on ice to reach binding equilibrium. […] Total binding was determined from the tubes containing only radiolabeled ligand.

[2] = test system: Human promyelocytic leukemia (HL60) cells; assay: HL-60 differentiation (nitro blue tetrazolium reduction); assay type: cell-based; details: FIG. 2
Method: FIG. 2 is a graph comparing the percent HL-60 cell differentiation as a function of the concentration of NP9 with that of 1,25(OH)2D3.
The study drugs were dissolved in ethanol and the concentrations determined using UV spectrophotometry. Serial dilutions were prepared so that a range of drug concentrations was tested without changing the final concentration of ethanol (≦0.2%) present in the cell cultures.
Human promyelocytic leukemia (HL60) cells were grown in RPMI-1640 medium containing 10% fetal bovine serum. The cells were incubated at 37° C. in the presence of 5% CO2.
HL60 cells were plated at 1.2×10^5 cells/mL. Eighteen hours after plating, cells in duplicate were treated with drug. Four days later, the cells were harvested and a nitro blue tetrazolium reduction assay was performed (Collins et al., 1979; J. Exp. Med. 149:969-974). The percentage of differentiated cells was determined by counting a total of 200 cells and recording the number that contain intracellular black-blue formazan deposits. Verification of differentiation to monocytic cells was determined by measuring phagocytic activity.

[3] = test system: 24-hydroxylase (24Ohase) gene promoter; assay: In vitro transcription assay (luciferase reporter in ROS 17/2.8 cells); assay type: cell-based; details: 24Ohase promoter-luciferase, FIG. 3
Method: FIG. 3 is a graph comparing the in vitro transcription activity of NP9 with that of 1,25(OH)2D3.
Transcription activity was measured in ROS 17/2.8 (bone) cells that were stably transfected with a 24-hydroxylase (24Ohase) gene promoter upstream of a luciferase reporter gene (Arbour et al., 1998). Cells were given a range of doses. Sixteen hours after dosing the cells were harvested and luciferase activities were measured using a luminometer. RLU=relative luciferase units.
Antagonism was tested by adding a combination of 1,25(OH)2D3 and the compound in the same well keeping the final ethanol concentration the same.

Sprague-Dawley rats [4] = assay: Bone calcium mobilization (serum calcium); assay type: in vivo, rat; details: four consecutive ip doses, FIG. 4B
Source text: (§1) FIGS. 4A and 4B are graphs comparing intestinal calcium transport (4A) and bone calcium mobilization (4B) of NP9 and 1,25(OH)2D3.
(§2) Male, weanling Sprague-Dawley rats were placed on Diet 11 (Suda et al. J. Nutr. 100:1049, 1970) (0.47% Ca) diet+vitamins AEK for one week followed by Diet 11 (0.02% Ca)+AEK for 3 weeks. The rats were then switched to a diet containing 0.47% Ca for one week followed by two weeks on a diet containing 0.02% Ca. Dose administration began during the last week on 0.02% calcium diet. Four consecutive ip doses were given approximately 24 hours apart. Twenty-four hours after the last dose, blood was collected from the severed neck and the concentration of serum calcium was determined as a measure of bone calcium mobilization. The first 10 cm of the intestine was also collected for intestinal calcium transport analysis using the everted gut sac method. Antagonism was tested by administering a combination of 1,25(OH)2D3 and the compound to the animal simultaneously.

Sprague-Dawley rats [5] = assay: Intestinal calcium transport (everted gut sac method); assay type: in vivo, rat; details: four consecutive ip doses, FIG. 4A
Source text: as §1, §2

CC(C)[C@H]1CC[C@H]2/C(=C/C=C3C[C@@H](O)C[C@H](O)C3)CCC[C@]12C [formula 1B, 19,23,24,25,26,27-Hexanor-1α-hydroxyvitamin D3]
binding to the vitamin D receptor relative to 1,25-(OH)2D3 [1]: does not bind to the vitamin D receptor as strongly as the native hormone 1,25-(OH)2D3 | activity in inducing differentiation of HL-60 cells compared to 1,25-(OH)2D3 [2]: less but still significant activity compared to 1,25-(OH)2D3 | activity in causing transcription compared to 1,25-(OH)2D3 [3]: does not show as much activity in causing transcription as 1,25-(OH)2D3 | bone calcium mobilizing activity (Sprague-Dawley rats [4]): no measurable bone calcium mobilizing activity | intestinal calcium transport activity (Sprague-Dawley rats [5]): no measurable
